According to ChEMBL document CHEMBL5338756, “Dual-Acting Small Molecules: Subtype-Selective Cannabinoid Receptor 2 Agonist/Butyrylcholinesterase Inhibitor Hybrids Show Neuroprotection in an Alzheimer's Disease Mouse Model” (J Med Chem, 2023):
“And” between values parts separate entries of the source, which are not always exact repeats. Identical values can stand only once.

Assays:
[1] = biological target: Cannabinoid receptor 1 (Rattus norvegicus) (UniProt P20272); experiment: Displacement of [3H]CP55940 from rat brain membrane CB1 receptor at 10 uM incubated for 3 hrs by scintillation counter analysis relative to control; format: cell membranes
Cannabinoid receptor 1 (Rattus norvegicus), sequence (P20272 whole entry): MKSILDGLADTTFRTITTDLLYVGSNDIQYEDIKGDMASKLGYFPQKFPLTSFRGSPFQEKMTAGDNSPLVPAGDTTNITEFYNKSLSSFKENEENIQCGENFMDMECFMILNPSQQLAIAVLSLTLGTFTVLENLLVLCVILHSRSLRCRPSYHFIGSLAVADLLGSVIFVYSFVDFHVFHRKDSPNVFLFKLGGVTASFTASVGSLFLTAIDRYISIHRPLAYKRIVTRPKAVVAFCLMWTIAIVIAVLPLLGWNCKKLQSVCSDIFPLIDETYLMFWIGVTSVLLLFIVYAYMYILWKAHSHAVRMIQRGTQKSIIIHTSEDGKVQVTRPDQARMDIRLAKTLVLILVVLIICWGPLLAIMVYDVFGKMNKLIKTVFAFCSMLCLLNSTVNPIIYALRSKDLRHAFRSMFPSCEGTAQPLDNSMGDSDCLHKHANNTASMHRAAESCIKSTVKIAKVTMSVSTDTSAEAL

Cholinesterase [2] = biological target: T1, Cholinesterase (Homo sapiens, UniProt P06276)
T1 sequence (P06276 whole entry): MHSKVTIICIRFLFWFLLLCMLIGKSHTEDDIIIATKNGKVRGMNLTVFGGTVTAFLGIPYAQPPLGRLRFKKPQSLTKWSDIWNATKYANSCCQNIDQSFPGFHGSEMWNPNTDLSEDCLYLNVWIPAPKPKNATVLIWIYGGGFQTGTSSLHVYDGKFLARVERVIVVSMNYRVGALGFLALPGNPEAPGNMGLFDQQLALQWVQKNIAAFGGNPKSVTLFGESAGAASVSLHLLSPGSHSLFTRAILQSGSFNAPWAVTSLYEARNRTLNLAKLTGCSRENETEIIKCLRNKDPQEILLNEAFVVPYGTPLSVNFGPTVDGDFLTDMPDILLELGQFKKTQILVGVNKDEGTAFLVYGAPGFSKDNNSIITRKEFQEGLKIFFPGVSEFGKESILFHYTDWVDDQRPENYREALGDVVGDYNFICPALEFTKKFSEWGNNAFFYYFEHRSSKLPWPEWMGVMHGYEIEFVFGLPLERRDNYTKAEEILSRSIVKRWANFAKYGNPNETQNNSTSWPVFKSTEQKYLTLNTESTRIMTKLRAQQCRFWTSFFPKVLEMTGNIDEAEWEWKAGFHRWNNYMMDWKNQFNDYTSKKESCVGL

Cannabinoid receptor 2 [3] = biological target: T2, Cannabinoid receptor 2 (Homo sapiens, UniProt P34972)
T2 sequence (P34972 whole entry): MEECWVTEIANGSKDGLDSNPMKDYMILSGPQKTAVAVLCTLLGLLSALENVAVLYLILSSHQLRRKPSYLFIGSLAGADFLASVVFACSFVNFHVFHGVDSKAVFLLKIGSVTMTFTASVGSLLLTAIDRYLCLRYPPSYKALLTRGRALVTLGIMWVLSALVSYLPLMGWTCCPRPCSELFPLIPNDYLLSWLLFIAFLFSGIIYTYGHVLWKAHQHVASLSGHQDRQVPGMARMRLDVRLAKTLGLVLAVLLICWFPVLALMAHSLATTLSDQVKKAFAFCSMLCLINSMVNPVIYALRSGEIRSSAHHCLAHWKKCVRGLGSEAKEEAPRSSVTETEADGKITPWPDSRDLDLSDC
Description: Displacement of [3H]CP55940 from human CB2 receptor expressed in HEK293 cell membrane incubated for 3 hrs by scintillation counter analysis

Cannabinoid receptor 2 [4] = biological target: T2, Cannabinoid receptor 2; experiment: biochemical
Description: Displacement of [3H]CP55940 from human CB2 receptor stably expressed in HEK293 cells by Cheng-Prusoff equation analysis

Cholinesterase [5] = biological target: T1, Cholinesterase; remark: listed apart in the source
Acetylcholinesterase [6] = biological target: T3, Acetylcholinesterase (Homo sapiens, UniProt P22303)
T3 sequence (P22303 whole entry): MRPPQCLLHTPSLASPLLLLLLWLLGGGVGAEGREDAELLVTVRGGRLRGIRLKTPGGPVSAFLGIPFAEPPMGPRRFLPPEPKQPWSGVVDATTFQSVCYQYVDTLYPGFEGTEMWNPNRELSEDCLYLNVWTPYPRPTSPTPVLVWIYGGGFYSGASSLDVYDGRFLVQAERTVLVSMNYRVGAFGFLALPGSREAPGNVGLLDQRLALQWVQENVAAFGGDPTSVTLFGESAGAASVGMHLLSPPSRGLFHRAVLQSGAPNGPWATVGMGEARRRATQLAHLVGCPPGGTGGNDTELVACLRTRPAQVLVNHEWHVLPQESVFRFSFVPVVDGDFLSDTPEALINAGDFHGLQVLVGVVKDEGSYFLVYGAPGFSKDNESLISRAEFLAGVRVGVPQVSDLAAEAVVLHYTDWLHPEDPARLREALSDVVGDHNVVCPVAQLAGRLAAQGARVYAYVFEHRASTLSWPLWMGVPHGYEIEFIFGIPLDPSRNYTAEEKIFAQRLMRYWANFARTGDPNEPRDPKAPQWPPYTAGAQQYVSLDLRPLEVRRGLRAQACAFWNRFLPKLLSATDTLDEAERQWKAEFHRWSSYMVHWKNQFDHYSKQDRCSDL

Acetylcholinesterase [7] = biological target: T3, Acetylcholinesterase; remark: listed apart in the source
Cannabinoid receptor 2 [8] = biological target: T2, Cannabinoid receptor 2; experiment: Displacement of [3H]CP55940 from human CB2 receptor expressed in HEK293 cell membrane at 10 uM incubated for 3 hrs by scintillation counter analysis relative to control; format: cell membranes
Cannabinoid receptor 2 [9] = biological target: T2, Cannabinoid receptor 2; remark: listed apart in the source
Description: Agonist activity at human CB2 receptor stably expressed in HEK293 cells assessed as induction of beta-arrestin 2 recruitment incubated for 2 hrs by luminescence based assay

Cannabinoid receptor 2 [10] = biological target: T2, Cannabinoid receptor 2; experiment: Agonist activity at human CB2 receptor stably expressed in HEK293 cells assessed as induction of beta-arrestin 2 recruitment at 10 uM incubated for 2 hrs by luminescence based assay relative to CP55940; format: functional, cell-based; conditions: filed as agonist
Cannabinoid receptor 2 [11] = biological target: T2, Cannabinoid receptor 2; experiment: Agonist activity at human CB2 receptor stably expressed in CHO-K1 cells co-expressing Galphaq16 by Fluo-4AM dye based calcium mobilization assay relative to CP55940; format: functional, cell-based
Cannabinoid receptor 2 [12] = biological target: T2, Cannabinoid receptor 2; remark: listed apart in the source
Mus musculus [13] = experiment: (§1) Synergistic neuroprotective activity against amyloid beta (25 to 35) induced Alzheimer's disease Swiss mouse model assessed as combination index at 0.1 mg/kg, ip administered once daily for day 1 to day 7 […] and measured on day 8 in presence of 2-benzyl-N,N-diethyl-1-isopentyl-1H-benzo[d]imidazole-5-carboxamide by spontaneous alternation performance test; format: functional
Mus musculus [14] = experiment: as §1, with “0.1 to 1” for “0.1”, “9 and 10” for “8”, “step-through passive avoidance” for “spontaneous alternation performance”; format: functional; conditions: dose 0.1-1 mg/kg

Row | SMILES | Activity [1] [%] | IC50 (Cholinesterase [2]) | IC50 (Cannabinoid receptor 2 [3]) [nM] | IC50 (Acetylcholinesterase [6]) | Activity ([1]; filed as agonist) [%] | other results
1 | CCN(CC)C(=O)c1ccc2c(c1)nc(Cc1ccc(O)cc1)n2CCC(C)C | 10 | > 25100 nM | 2210 |  |  | 
2 | CC(C)(C)OC(=O)NCCOCCOc1ccc(-c2cc(=O)c3c(OCc4ccccc4)cccc3o2)cc1 |  |  |  |  |  | Ki (Cannabinoid receptor 2 [4]): 2000 nM; IC50 (Cholinesterase [5]): 1780 nM
3 | CCN(CC)C(=O)c1ccc2c(c1)nc(Cc1ccccc1)n2CCC(C)C |  | 50 nM |  | > 25100 nM |  | IC50 (Cholinesterase [5]): 6.4 nM; IC50 (Acetylcholinesterase [7]): 3800 nM
4 | CCN(C)C(=O)Oc1ccc(Cc2nc3cc(C(=O)N(CC)CC)ccc3n2CCC(C)C)cc1 |  | 330 nM | 11000 | > 25100 nM | 40 | 
5 | NCCOCCOc1ccc(-c2cc(=O)c3ccccc3o2)cc1 |  |  |  |  |  | Ki (Cannabinoid receptor 2 [4]): 20 nM; IC50 (Cholinesterase [5]): 13400 nM
6 | CCN(CC)C(=O)c1ccc2c(c1)nc(Cc1ccc(OC(=O)NC)cc1)n2CCC(C)C |  |  |  |  |  | Activity (Cannabinoid receptor 2 [8]): 33%
7 | CCOc1ccc(Cc2nc3cc(OC(=O)N(C)C)ccc3n2CCC(C)C)cc1 |  | > 25100 nM | 1190 | > 25100 nM | 57 | 
8 | CCN(CC)C(=O)c1ccc2c(c1)nc(Cc1ccc(OC(=O)N(C)Cc3ccccc3)cc1)n2CCC(C)C |  | 390 nM | 2600 | 9010 nM | 51 | 
9 | CCN(CC)C(=O)Oc1ccc(Cc2nc3cc(C(=O)N(CC)CC)ccc3n2CCC(C)C)cc1 |  | 4220 nM |  | > 25100 nM | 43 | Activity (Cannabinoid receptor 2 [8]): < 10%
10 | CCOc1ccc(Cc2nc3cc(OC(=O)N4CCCC4)ccc3n2CCC(C)C)cc1 |  | 3580 nM and 3160 nM | 1520 | > 25100 nM | 49 | 
11 | CCN(CC)C(=O)c1ccc2c(c1)nc(Cc1ccc(OC(=O)N(C)C)cc1)n2CCC(C)C | < 10 | 620 nM | 780 | 8660 nM |  | EC50 (Cannabinoid receptor 2 [9]): 82 nM; Emax (Cannabinoid receptor 2 [10]): 79%; Emax (Cannabinoid receptor 2 [11]; filed as agonist): 42%; EC50 (Cannabinoid receptor 2 [12]): 244 nM
12 | CC(C)(C)OC(=O)NCCOCCOc1ccc(-c2cc(=O)c3ccccc3o2)cc1 |  |  |  |  |  | Ki (Cannabinoid receptor 2 [4]): 4500 nM; IC50 (Cholinesterase [5]): 2 nM
13 | O=c1cc(-c2ccc(O)cc2)oc2ccccc12 |  |  |  |  |  | IC50 (Cholinesterase [5]): 304 nM; IC50 (Acetylcholinesterase [7]): 1500 nM
14 | CCNC(=O)Oc1ccc(Cc2nc3cc(C(=O)N(CC)CC)ccc3n2CCC(C)C)cc1 | 37 | 810 nM |  | > 25100 nM |  | Activity (Cannabinoid receptor 2 [8]): 19%
15 | CCOc1ccc(Cc2nc3cc(O)ccc3n2CCC(C)C)cc1 | 19 |  | 5530 | > 25100 nM |  | 
16 | CCN(CC)C(=O)c1ccc2c(c1)nc(Cc1ccc(OC(=O)N(C)c3ccccc3)cc1)n2CCC(C)C | 25 | 10100 nM | 3850 | 3460 nM |  | 
17 | Cc1c(C(=O)NN2CCCCC2)nn(-c2ccc(Cl)cc2Cl)c1-c1ccc(Cl)cc1 |  |  |  |  |  | Activity (Cannabinoid receptor 2 [8]): < 10%
18 | CCN(CC)C(=O)c1ccc2c(c1)nc(Cc1ccc(OC(=O)NCc3ccccc3)cc1)n2CCC(C)C | < 10 | 190 nM | 11000 | 4500 nM and 3980 nM |  | Emax (Cannabinoid receptor 2 [11]): 22%; EC50 (Cannabinoid receptor 2 [12]): 7710 nM
19 | O=c1cc(-c2ccc(O)cc2)oc2cccc(OCc3ccccc3)c12 |  |  |  |  |  | IC50 (Cholinesterase [5]): 6.9 nM; IC50 (Acetylcholinesterase [7]): 711 nM
20 | CCN(CC)C(=O)c1ccc2c(c1)nc(Cc1ccc(OC(=O)NC3CC3)cc1)n2CCC(C)C | 32 | 70 nM and 79.4 nM |  | > 25100 nM |  | Activity (Cannabinoid receptor 2 [8]; filed as agonist): 50%
21 | CCOc1ccc(Cc2nc3cc(OC(=O)N4CCC4)ccc3n2CCC(C)C)cc1 |  | 150 nM | 1020 | > 25100 nM | 41 | EC50 (Cannabinoid receptor 2 [9]): 42.6 nM; Emax (Cannabinoid receptor 2 [11]; filed as agonist): 68%; EC50 (Cannabinoid receptor 2 [12]): 1300 nM
22 | CCOc1ccc(Cc2nc3cc(OC(=O)NC4CC4)ccc3n2CCC(C)C)cc1 | 22 | 1350 nM | 1010 | > 25100 nM |  | 
23 | CCOc1ccc(Cc2nc3cc(OC(=O)N(C)CC)ccc3n2CCC(C)C)cc1 |  | 2900 nM | 580 | > 25100 nM | 80 | 
24 | CCCN(C)C(=O)Oc1ccc(Cc2nc3cc(C(=O)N(CC)CC)ccc3n2CCC(C)C)cc1 |  | 1060 nM |  | > 25100 nM | 46 | 
25 | Cc1cc([N+](=O)[O-])c2oc(-c3ccc(OCCOCCNC(=O)OC(C)(C)C)cc3)cc(=O)c2c1 |  |  |  |  |  | Ki (Cannabinoid receptor 2 [4]): 764 nM; IC50 (Cholinesterase [5]): 1600 nM; CI (Mus musculus [13]): 0.49; CI (Mus musculus [14]): 0.65
